# Measured values reported in US9051250B2, “Polymorphs of N-malonyl-bis(N′-methyl-N′-thiobenzoylhydrazide)” (Synta Pharmaceuticals Corp., priority 2007, dated 2015).
# Read-outs that look alike come from different tables or passages of the source.
# Key:
# [1] = Stability study (appearance, HPLC, IR) in stability chambers; type: physicochemical; details: for % compd 1 / % compd 2: HPLC
# Method: 100 mg±2% of compound 1 was weighed into each 20 mL scintillation vial. The vials were capped with appropriate caps and sealed with Parafilm to prevent moisture entrapment. Stability for the test compounds synthesized from different log was tested. Twelve vials for each lot were prepared and distributed into respective stability chambers to initiate their stability study according to the following protocol.
# Stability of the test compound was determined by its appearance and by analytical methods such as HPLC and IR. The IR test was performed for all time points under the two conditions listed above using material in one vial.
# Compound 1 contains trace amount of compound 2 shown below. The amounts of compound 1 and 2 present at each time point were analyzed by HPLC.
# [2] = Reconstitution test in 50:50 Cremophor EL/Ethanol; type: physicochemical; details: 266 mg in 16.7 ml 50:50 Cremophor EL/Ethanol
# Method: As used herein, the reconstitution time is measured in 50:50 Cremophor EL/ethanol solution at ambient temperature (e.g., 18-25° C.) The reconstitution time can be measure according to the procedure described in Example 7. For example, the reconstitution time is measured by dissolving 266 mg of compound 1 in 16.7 mL of 50:50 Cremophor EL/ethanol solution with manual shaking or mechanical shaking at a speed of 232-236 rpm.
# 50:50 Cremophor EL/Ethanol was prepared and filtered through a 0.45 μm filter and used for testing. 266 mg of compound 1 was weighed into a 50 mL glass vial with a rubber stopper. 16.7 ml of filtered 50:50 Cremophor EL/Ethanol solution was taken by a syringe and needle and added into the vial. The vial was shaken either manually, or on a mechanical shaker at a speed of 232-236 rpm. The reconstitution time was determined with three vials. At different time points, vials were subject to visual observation.
# [3] = Sieve-cut test; type: physicochemical; details: 300 micron screen
# Method: […] 5 g to 20 g samples were used, depending on the batch size. The mass and percentage of material collected in the receiver were measured.
# [4] = system: stage IV metastatic melanoma; details: in combination with taxol, relative to patients treated with paclitaxel alone; cited from earlier work
# [5] = Solubility of Form A and Form D; type: physicochemical; details: shake time 24 hour; for solubility at 24 h: organic solvent or mixture, thermodynamic from solid
compound,measurement,setting,value
"CN(NC(=O)CC(=O)NN(C)C(=S)c1ccccc1)C(=S)c1ccccc1 [Lot #2, N-malonyl-bis(N′-methyl-N′-thiobenzoylhydrazide)]",Appearance,"[1]; 25° C./60% RH, 0 months",Pale-yellow
same,FT-IR,"[1]; 25° C./60% RH, 0 months",Form D
same,Appearance,"[1]; 25° C./60% RH, 1 month",Pale-yellow
same,FT-IR,"[1]; 25° C./60% RH, 1 month",Form D
same,Appearance,"[1]; 25° C./60% RH, 3 months",Pale-yellow
same,FT-IR,"[1]; 25° C./60% RH, 3 months",Form D
same,Appearance,"[1]; 25° C./60% RH, 6 months",Pale-yellow
same,FT-IR,"[1]; 25° C./60% RH, 6 months",Form D
same,Appearance,"[1]; 25° C./60% RH, 9 months",Pale-yellow
same,FT-IR,"[1]; 25° C./60% RH, 9 months",Form D
same,Appearance,"[1]; 25° C./60% RH, 12 months",Pale-yellow
same,FT-IR,"[1]; 25° C./60% RH, 12 months",Form D
same,Appearance,"[1]; 40° C./75% RH, 0 months",Pale-
same,FT-IR,"[1]; 40° C./75% RH, 0 months",Form D
same,Appearance,"[1]; 40° C./75% RH, 0.5 months",Pale-yellow
same,FT-IR,"[1]; 40° C./75% RH, 0.5 months",Form D
same,Appearance,"[1]; 40° C./75% RH, 1 month",Pale-
same,FT-IR,"[1]; 40° C./75% RH, 1 month",Form D
same,Appearance,"[1]; 40° C./75% RH, 3 months",Pale-yellow
same,FT-IR,"[1]; 40° C./75% RH, 3 months",Form D
same,Appearance,"[1]; 40° C./75% RH, 6 months",Pale-
same,FT-IR,"[1]; 40° C./75% RH, 6 months",Form D
same,% compd 1,"[1]; 25° C./60% RH, 0 months",99.7%
same,% compd 2,"[1]; 25° C./60% RH, 0 months",0.15%
same,% compd 1,"[1]; 25° C./60% RH, 1 month",98.6%
same,% compd 2,"[1]; 25° C./60% RH, 1 month",0.14%
same,% compd 1,"[1]; 25° C./60% RH, 3 months",100.2%
same,% compd 2,"[1]; 25° C./60% RH, 3 months",0.15%
same,% compd 1,"[1]; 25° C./60% RH, 6 months",99.6%
same,% compd 2,"[1]; 25° C./60% RH, 6 months",0.13%
same,% compd 1,"[1]; 25° C./60% RH, 9 months",98.9%
same,% compd 2,"[1]; 25° C./60% RH, 9 months",0.13%
same,% compd 1,"[1]; 25° C./60% RH, 12 months",99.7%
same,% compd 2,"[1]; 25° C./60% RH, 12 months",0.13%
same,% compd 1,"[1]; 40° C./75% RH, 0 months",99.7%
same,% compd 2,"[1]; 40° C./75% RH, 0 months",0.15%
same,% compd 1,"[1]; 40° C./75% RH, 0.5 months",99.6%
same,% compd 2,"[1]; 40° C./75% RH, 0.5 months",0.14%
same,% compd 1,"[1]; 40° C./75% RH, 1 month",100.3%
same,% compd 2,"[1]; 40° C./75% RH, 1 month",0.16%
same,% compd 1,"[1]; 40° C./75% RH, 3 months",100.2%
same,% compd 2,"[1]; 40° C./75% RH, 3 months",0.19%
same,% compd 1,"[1]; 40° C./75% RH, 6 months",101.7%
same,% compd 2,"[1]; 40° C./75% RH, 6 months",0.18%
"CN(NC(=O)CC(=O)NN(C)C(=S)c1ccccc1)C(=S)c1ccccc1 [compound 1, N-malonyl-bis(N′-methyl-N′-thiobenzoylhydrazide)]",Re-constitution time (min) for specific sieve-cut,[2]; 500 micron sieve-cut,">>25, 500 micron min"
same,"% by weight that passed through a specific size screen, %",[3],Does not pass
same,time to progression,[4],increase the time to progression
"CN(NC(=O)CC(=O)NN(C)C(=S)c1ccccc1)C(=S)c1ccccc1 [Crystal Habit 2, N-malonyl-bis(N′-methyl-N′-thiobenzoylhydrazide)]",Re-constitution time (min) for specific sieve-cut,[2]; 150 micron sieve-cut,less than or equal to 15 min
"CN(NC(=O)CC(=O)NN(C)C(=S)c1ccccc1)C(=S)c1ccccc1 [Form A, N-malonyl-bis(N′-methyl-N′-thiobenzoylhydrazide)]",solubility at 24 h,"[5]; 50:50 Cremophor/ethanol, 50:50 Cremophor/EtOH, Vial1, read-out: Solubility in 50:50 Cre/EtOH, Vial1",24400 µg/mL
same,solubility at 24 h,"[5]; 50:50 Cremophor/ethanol, 50:50 Cremophor/EtOH, Vial2, read-out: Solubility in 50:50 Cre/EtOH, Vial2",24300 µg/mL
same,solubility at 24 h,"[5]; 50:50 Cremophor/ethanol, 50:50 Cremophor/EtOH, average of two vials, read-out: Solubility in 50:50 Cre/EtOH, Average",24300 µg/mL
same,solubility at 24 h,"[5]; ethanol, EtOH, Vial1, read-out: Solubility in EtOH, Vial1",6280 µg/mL
same,solubility at 24 h,"[5]; ethanol, EtOH, Vial2, read-out: Solubility in EtOH, Vial2",6450 µg/mL
same,solubility at 24 h,"[5]; ethanol, EtOH, average of two vials, read-out: Solubility in EtOH, Average",6400 µg/mL
same,solubility at 24 h,"[5]; ethyl acetate, EtOAc, Vial1, read-out: Solubility in EtOAc, Vial1",4690 µg/mL
same,solubility at 24 h,"[5]; ethyl acetate, EtOAc, Vial2, read-out: Solubility in EtOAc, Vial2",4690 µg/mL
same,solubility at 24 h,"[5]; ethyl acetate, EtOAc, average of two vials, read-out: Solubility in EtOAc, Average",4700 µg/mL
"CN(NC(=O)CC(=O)NN(C)C(=S)c1ccccc1)C(=S)c1ccccc1 [Crystal Habit 1, N-malonyl-bis(N′-methyl-N′-thiobenzoylhydrazide)]",Re-constitution time (min) for specific sieve-cut,[2]; 500 micron sieve-cut,greater than 25 min
"CN(NC(=O)CC(=O)NN(C)C(=S)c1ccccc1)C(=S)c1ccccc1 [Form D, N-malonyl-bis(N′-methyl-N′-thiobenzoylhydrazide)]","Solubility in 50:50 Cre/EtOH, Vial1","[5]; 50:50 Cremophor/EtOH, Vial1",42690 µg/mL
same,"Solubility in 50:50 Cre/EtOH, Vial2","[5]; 50:50 Cremophor/EtOH, Vial2",42740 µg/mL
same,"Solubility in 50:50 Cre/EtOH, Average","[5]; 50:50 Cremophor/EtOH, average of two vials",42700 µg/mL
same,"Solubility in EtOAc, Vial1","[5]; EtOAc, Vial1",7410 µg/mL
same,"Solubility in EtOAc, Vial2","[5]; EtOAc, Vial2",7500 µg/mL
same,"Solubility in EtOAc, Average","[5]; EtOAc, average of two vials",7500 µg/mL
same,"Solubility in EtOH, Vial1","[5]; EtOH, Vial1",9760 µg/mL
same,"Solubility in EtOH, Vial2","[5]; EtOH, Vial2",9750 µg/mL
same,"Solubility in EtOH, Average","[5]; EtOH, average of two vials",9800 µg/mL
"CN(NC(=O)CC(=O)NN(C)C(=S)c1ccccc1)C(=S)c1ccccc1 [Lot #1, N-malonyl-bis(N′-methyl-N′-thiobenzoylhydrazide)]",Appearance,"[1]; 25° C./60% RH, 0 months",Pale-yellow
same,FT-IR,"[1]; 25° C./60% RH, 0 months",Form D
same,Appearance,"[1]; 25° C./60% RH, 1 month",Pale-yellow
same,FT-IR,"[1]; 25° C./60% RH, 1 month",Form D
same,Appearance,"[1]; 25° C./60% RH, 3 months",Pale-yellow
same,FT-IR,"[1]; 25° C./60% RH, 3 months",Form D
same,Appearance,"[1]; 25° C./60% RH, 6 months",Pale yellow
same,FT-IR,"[1]; 25° C./60% RH, 6 months",Form D
same,Appearance,"[1]; 25° C./60% RH, 9 months",Pale yellow
same,FT-IR,"[1]; 25° C./60% RH, 9 months",Form D
same,Appearance,"[1]; 25° C./60% RH, 12 months",Pale yellow
same,FT-IR,"[1]; 25° C./60% RH, 12 months",Form D
same,Appearance,"[1]; 40° C./75% RH, 0 months",Pale-
same,FT-IR,"[1]; 40° C./75% RH, 0 months",Form D
same,Appearance,"[1]; 40° C./75% RH, 0.5 months",Pale-yellow
same,FT-IR,"[1]; 40° C./75% RH, 0.5 months",Form D
same,Appearance,"[1]; 40° C./75% RH, 1 month",Pale-
same,FT-IR,"[1]; 40° C./75% RH, 1 month",Form D
same,Appearance,"[1]; 40° C./75% RH, 3 months",Pale-yellow
same,FT-IR,"[1]; 40° C./75% RH, 3 months",Form D
same,Appearance,"[1]; 40° C./75% RH, 6 months",Pale-
same,FT-IR,"[1]; 40° C./75% RH, 6 months",Form D
same,% compd 1,"[1]; 25° C./60% RH, 0 months",99.0%
same,% compd 2,"[1]; 25° C./60% RH, 0 months",1.30%
same,% compd 1,"[1]; 25° C./60% RH, 1 month",98.8%
same,% compd 2,"[1]; 25° C./60% RH, 1 month",1.28%
same,% compd 1,"[1]; 25° C./60% RH, 3 months",99.0%
same,% compd 2,"[1]; 25° C./60% RH, 3 months",1.31%
same,% compd 1,"[1]; 25° C./60% RH, 6 months",99.0%
same,% compd 2,"[1]; 25° C./60% RH, 6 months",1.28%
same,% compd 1,"[1]; 25° C./60% RH, 9 months",97.5%
same,% compd 2,"[1]; 25° C./60% RH, 9 months",1.38%
same,% compd 1,"[1]; 25° C./60% RH, 12 months",98.0%
same,% compd 2,"[1]; 25° C./60% RH, 12 months",1.33%
same,% compd 1,"[1]; 40° C./75% RH, 0 months",99.0%
same,% compd 2,"[1]; 40° C./75% RH, 0 months",1.30%
same,% compd 1,"[1]; 40° C./75% RH, 0.5 months",99.7%
same,% compd 2,"[1]; 40° C./75% RH, 0.5 months",1.28%
same,% compd 1,"[1]; 40° C./75% RH, 1 month",95.8%
same,% compd 2,"[1]; 40° C./75% RH, 1 month",1.28%
same,% compd 1,"[1]; 40° C./75% RH, 3 months",98.9%
same,% compd 2,"[1]; 40° C./75% RH, 3 months",1.33%
same,% compd 1,"[1]; 40° C./75% RH, 6 months",98.4%
same,% compd 2,"[1]; 40° C./75% RH, 6 months",1.31%
CN(NC(=O)CC(=O)NN(C)C(=S)c1ccccc1)C(=S)c1ccccc1 [compound 2],Re-constitution time (min) for specific sieve-cut,[2]; 500 micron sieve-cut,">>25, 500 micron min"
same,"% by weight that passed through a specific size screen, %",[3],Does not pass
